The record followed here is patent publication US9957209B2, “Use of quinone methides as antipolymerants for vinylic monomers” (Ecolab USA Inc., priority 2015, dated 2018).

The test can be described thus: Static antipolymerant screening: polystyrene formed in heated, inhibitor-free styrene (ASTM D2121 methanol precipitation, absorbance at 420 nm). As to conditions: 0.33 mmolal antipolymerant in styrene, 122° C., anaerobic. The procedure: The antipolymerant performance of the isolated cinnamyl quinone methide, 2,6-di-tert-butyl-4-(3-phenylallylidene)cyclohexa-2,5-dienone (7-Cinn-QM), was determined using the static method whereby a 0.31 mM (0.33 mmolal) solution of the retarder was prepared in inhibitor-free styrene. To start with, 4-tert-butylcatechol (TBC) was removed by eluting styrene through alumina. To prepare a 0.31 mM solution of 7-Cinn-QM, 0.0264 g were dissolved in freshly de-inhibited styrene to give a solution of 250 grams. Into twenty-four Ace Glass #15 threaded pressure tubes equipped with PTFE screw caps and fluoroelastomer (FETFE) O-rings, 9 mL of the solution were charged into each tube. To purge as much oxygen out of the solutions as possible, each solution was sparged with nitrogen for 2 minutes. Immediately after sparging each solution, the tube was sealed and the solution kept under a nitrogen gas overhead. […] After 30 minutes, and every 15 minutes thereafter, four tubes were retrieved from the block and the polymerization reaction quenched by cooling in an ice bath. The cooled polymer solutions were immediately diluted with toluene.
To measure the amount of polymer formed, methanol was used to precipitate the polymer in accordance with the ASTM D2121 method. The absorbance of the polymer-methanol admixtures were measured at 420 nm. Using a calibration curve, the polymer concentrations in each of the tubes was measured and the four data points for each time were averaged.
For comparative purpose, 0.0243 g of 7-Ph-QM were dissolved in 350 g of inhibitor-free styrene after which the antipolymerant performance was tested according to the procedure in Example 3.
Similarly, a styrene solution comprising 0.155 mmolal of 7-Ph-QM and 0.155 mmolal of 7-Cinn-QM was used to screen the performance of the combination in accordance with the procedure in Example 3.

Consider 7-Phenyl Quinone Methide [7-Ph-QM], for which the “Polystyrene (%)” value is recorded as 0.13% (Time 30); 0.49% (Time 45); 0.89% (Time 60); 1.08% (Time 75); 1.37% (Time 90); 1.56% (Time 105). The “Polystyrene (%)” value stood at 2.4% (Time 120) and 3.4% (Time 135).
With `CC(C)(C)C1=CC(=CC=Cc2ccccc2)C=C(C(C)(C)C)C1=O` [7-Cinn-QM, 2,6-di-tert-butyl-4-(3-phenylallylidene)cyclohexa-2,5-dienone], the “Polystyrene (%)” value reads like this: (Time 30) 0.05%; (Time 45) 0.20%; (Time 60) 0.41%; (Time 75) 0.88%; (Time 90) 1.54%; (Time 105) 3.39%. The “Polystyrene (%)” value (Time 120) is reported as 5.13% and the “Polystyrene (%)” value (Time 135) is recorded as 7.07%.
